Structures are written as SMILES. Where “and” joins values, the source holds several entries; their conditions need not be identical. Equal entries are not always repeated.

Data on one compound can be found in patent US20080064665A1, “Combination approaches to cancer treatment” (priority 2006, published 2008).

Data set [1] has as its system A2780 human ovarian cancer xenografts. As to the kind of experiment: Growth delay and survival of A2780 xenografts, PR-104 and docetaxel. The settings on record: A2780 xenograft. It counts as in vivo, CD-1 nude mice. Here is the method:
End-point: After treatment, tumor size and body weights were measured regularly and mice were culled either when the average diameter of the tumor reached 15 mm (end-point), the tumor ulcerated or when the body weight change reached −15%. Experiment was ended and all remaining mice culled 120 days after treatment.
Analysis: End-points will be expressed as TTE50, Median RTV^4 and plotted in Kaplan-Meier Plots and analysed by Log Rank P statistical test.

Data set [2] concerns SiHa human cervical cancer xenograft. As to the kind of experiment: Growth delay and survival of SiHa xenograft, PR-104 and docetaxel. It counts as in vivo, Rag-1^null mice. The text has this: Analysis: End-points will be expressed as TTE50, Median RTV^4 and plotted in Kaplan-Meier Plots and analysed by Log Rank P statistical test. Weight loss nadir will be compared between schedules.

Setting [3] is: PR-104 652 mg/kg, docetaxel 73 mg/kg, q2w×2.
Where [4] appears, read: Rag-1 mice, PR-104 652 mg/kg, docetaxel 73 mg/kg, q2w×2.

In the case of `CC(=O)O[C@@]12CO[C@@H]1C[C@H](O)[C@@]1(C)C(=O)[C@H](O)C3=C(C)[C@@H](OC(=O)[C@H](O)[C@@H](NC(=O)OC(C)(C)C)c4ccccc4)C[C@@](O)([C@@H](OC(=O)c4ccccc4)[C@H]21)C3(C)C` [Docetaxel, (2R,3S)-N-carboxy-3-phenylisoserine, N-tert-butyl ester, 13-ester with 5β-20-epoxy-1,2α,4,7β,10β,13α-hexahydroxytax-11-en-9-one 4-acetate 2-benzoate, trihydrate, reference compound], the “Weight Loss Nadir (%)” value in data set [1] (CD-1 nude mice, PR-104 652 mg/kg, docetaxel 73 mg/kg, i.p., q2w×2, trihydrate) is recorded as −8.7±1.5%; in data set [2] (Rag-1 mice, PR-104 652 mg/kg, docetaxel 73 mg/kg, i.p., q2w×2, trihydrate), −7.0±0.8%. Further, the “LTC (long term control)” value in data set [1] (120 day experiment) came out at 0; in data set [2] (Rag-1 mice, 120 day experiment) it was 0. Also, the “Median RTV^4” value in data set [1] (setting [3]) is reported as 12 days; in data set [2] (setting [4]), 44.5 days. In data set [1] (setting [3]), this compound yielded a TTE50 of 14 days. Moreover, the “TGD (relative gain in median RTV^4 versus control)” value is 167% and 166.7% in data set [1] (PR-104 652 mg/kg, docetaxel 73 mg/kg, q2w×2, trihydrate); 271% and 270.8% in data set [2] (Rag-1 mice, PR-104 652 mg/kg, docetaxel 73 mg/kg, q2w×2, trihydrate). Moreover, in data set [1] (versus control), the “improvement in median tumor growth delay” value was 7.5 days. Moreover, the “Gain TTE50 (improvement in median survival)” value is reported as 8 days in data set [1] (versus control (6 days)) and 37 days in data set [2] (Rag-1 mice, versus control (17 days)). For the same compound, the “activity against SiHa xenograft (in words)” value in data set [2] (Rag-1 mice) is given as “displayed activity”. Besides, the “TTE50 (median time for tumor end-point to occur)” value in data set [2] (setting [4]) is recorded as 54 days. The Day of death in data set [2] (Rag-1 mice, day of unscheduled death, trihydrate) was 44 and 66. In addition, in data set [2] (Rag-1 mice, versus control), the “improvement in tumor growth delay” value was 32.5 days. This compound gave an Unscheduled deaths in data set [2] (female Rag-1 mice, total dose PR-104 652 mg/kg, docetaxel 73 mg/kg, i.p., q2w×2) of 2.
